Target: T1, TtCS (citrate synthase from Thermus thermophilus HB8) (Thermus thermophilus, UniProt Q5SIM6)
T1 construct: gene TTHA1343; recombinant, E. coli BL21(DE3) pET-3a; no tag stated; 377 residues, Mr 42,304 per subunit; homodimer
T1 sequence (Q5SIM6 1-377): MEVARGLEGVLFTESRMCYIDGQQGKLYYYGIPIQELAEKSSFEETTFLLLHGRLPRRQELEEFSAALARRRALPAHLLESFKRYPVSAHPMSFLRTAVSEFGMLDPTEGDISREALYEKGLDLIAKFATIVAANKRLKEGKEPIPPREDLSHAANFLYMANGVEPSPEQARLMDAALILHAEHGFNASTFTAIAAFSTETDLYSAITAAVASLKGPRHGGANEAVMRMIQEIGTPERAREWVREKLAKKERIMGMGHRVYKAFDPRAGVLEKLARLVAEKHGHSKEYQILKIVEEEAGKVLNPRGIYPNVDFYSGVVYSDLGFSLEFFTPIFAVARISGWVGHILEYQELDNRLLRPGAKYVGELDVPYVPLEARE
Assay: X-ray crystal structure, […] Å, co-crystallised
Format: binding
Settings: closed forms (fully and partially closed)

Row | Compound | X-ray crystal structure, 2.3 Å, co-crystallised (ternary complex with citrate, same crystallisation, active site just above citrate) | X-ray crystal structure, 2.3 Å, co-crystallised (ternary complex with CoA, 10 mM Na-citrate, 10 mM CoA, 100 mM KCl, then 1.5 M lithium sulfate, 100 mM Na-citrate pH 5.8, 20°C, active site)
1 | CC(C)(COP(=O)(O)OP(=O)(O)OC[C@H]1O[C@@H](n2cnc3c(N)ncnc32)[C@H](O)[C@@H]1OP(=O)(O)O)[C@@H](O)C(=O)NCCC(=O)NCCS [CoA] | CoA is bound at the upper part of the active site just above the citrate-binding site | –
2 | O=C(O)CC(O)(CC(=O)O)C(=O)O [citrate] | – | Citrate is bound deep in the cleft of the active site by hydrogen bonds

Source: publication PMC4736845, “Structural comparison between the open and closed forms of citrate synthase from Thermus thermophilus HB8” (Biophysics and Physicobiology, 2015)
